For one data set, the system named is six human PDA cell lines. The data set is described as follows: Cell proliferation in six human PDA cell lines. Format: cell-based. How it is done:
AsPC-1, BxPC-3, Capan-1, HPAF-II, MIA PaCa-2 and PANC-1 cells were seeded in 96-well plates and allowed to adhere overnight. After 24 h fresh media was added containing 0.5-10 μM concentrations of (S,S)-(HO)2DEHSPM alone or +0.5 μM GEM, +5 nM NAB, or + both, or containing GEM, NAB or GEM+NAB alone. Cell proliferation was measured in triplicate 24, 48, 72 and 96 h post-treatment and IC50 values were calculated.

Data set [1] is described as follows: Phase 1 monotherapy dose escalation study, pharmacokinetics. As to conditions: 0.05-0.8 mg/kg subcutaneous; Days 1 and 18 of cycle 1. Format: in vivo, human.
The test system of data set [2] is locally advanced or metastatic PDA. Description: Phase 1 monotherapy dose escalation study, efficacy (RECIST, overall survival). Format: in vivo, human. How it is done: Efficacy was assessed by RECIST criteria and overall survival.
The nature of data set [3]: Phase 1a/1b Cohort 4, shortened daily/periodic dosing regimen, liver toxicity. It counts as in vivo, human. The conditions noted are these: Cohort 4 regimen vs reference dosing regimen, particularly Cohort 3. How it is done: As part of the same study described in Example 4, one cohort of patients (Cohort 4) was administered a combination shortened daily dosing regimen/periodic dosing regimen and liver toxicities were compared to the reference dosing regimen described in Example 4.
Cohort 4 was administered 0.4 mg/kg/day of (S,S)-(HO)2DEHSPM for 5 consecutive days (for a total of 5 doses/cycle) beginning on day 1 (i.e. days 1-5) of each of Cycles 1 and 2. Thereafter Cohort 4 was administered 0.4 mg/kg/day of (S,S)-(HO)2DEHSPM on Days 1, 8 and 15 beginning on day 1 of Cycle 3 (for a total of 3 doses per cycle) and continuing for each cycle thereafter. Cohort 4 patients were treated for 3 to 6 or more total cycles depending on the individual patient's tolerance of treatment.

Data set [4] is described as follows: Repeat doses in healthy beagles. Format: in vivo. How it is done:
This effect on the exocrine pancreas in dogs (causing nearly complete ablation of the exocrine pancreas) was an unexpected finding in development of this polyamine analogue as a therapeutic agent. It occurred in a dose-dependent manner several weeks after drug dosing was discontinued in dogs. Beginning 5 to 6 weeks post last dose, the animals at the high-dose levels rapidly lost weight and their serum trypsin-like immunoreactivity decreased to <2.5 μg/L, which is diagnostic for exocrine pancreatic insufficiency in this species. In addition, fat absorption tests became abnormal and hepatic transaminase values increased. The pancreata of euthanized animals were grossly atrophied with diffuse moderate to severe pancreatic atrophy, especially of the acini. However, the islets appeared both histologically intact and functional based on serum glucose levels and oral glucose tolerance tests.

Data set [5] can be described thus: 4-week repeated dose toxicity study in rats. It counts as in vivo. How it is done: For the first-in-human (Phase 1a/1b) study, a starting dose of 0.05 mg/kg (1.8 mg/m^2) of (S,S)-(HO)2DEHSPM.4HCl was chosen as 1/10 the severely toxic dose (STD10) observed in a 4-week repeated dose toxicity study in rats (3 mg/kg/day; […]). This dose was chosen in accordance with the ICH S9 Guideline for the Nonclinical Development for Anti-Cancer Pharmaceuticals. For the Phase 1a/1b dosing schedule patients were administered up to 0.4 mg/kg/day Monday through Friday for 3 weeks for a total cumulative dose (TCD) of 6 mg/kg. In this animal experiment, one cycle consisted of 3 weeks of dosing and 5 weeks of rest for a total cycle length of 8 weeks.

A short description of data set [6]: Phase 1 monotherapy dose escalation study, safety and tolerability.
Experimental: Safety and tolerability were evaluated by clinical and laboratory assessments. PK was evaluated on Days 1 and 18 of cycle 1. Efficacy was assessed by RECIST criteria and overall survival.

Each structure is given as a SMILES string.

Consider `CCNCCC(O)CNCCCCNCC(O)CCNCC` [(S,S)-(HO)2DEHSPM, (6S,15S)-3,8,13,18-teraazaicosane-6,15-diol], for which the anti-proliferative effect entry in the data set on six human PDA cell lines (0.5-10 μM, maximal inhibition most often with 10 μM) is given as “anti-proliferative effect in all cell lines”. The “inhibition by (S,S)-(HO)2DEHSPM alone compared with GEM+NAB” value with six human PDA cell lines (ASPC-1, BxPC-3 and Capan-1 cells, p<0.005) is on record as “greater inhibition than GEM+NAB”. Further, the “Plasma Cmax and AUC0-t versus dose” value in data set [1] was “increased linearly with dose”. Moreover, the Stable disease in data set [2] (cohort 3 (0.2 mg/kg), N=4) is 2 patients; in data set [2] (cohort 4 (0.4 mg/kg), N=7), 2 patients; in data set [2] (cohort 5 (0.8 mg/kg), N=10), 4 patients. In data set [2] (cohort 3 (0.2 mg/kg), N=4, heavily pre-treated PDA patients), the Median survival is on record as 5.9 months. Further, the “severe liver toxicities compared to cohorts of Example 4” value in data set [3] is listed as “unexpectedly reduced or eliminated”. For the same molecule, the “effect on exocrine pancreas” value in data set [4] (cumulative exposure to repeat doses) is “exocrine pancreatic atrophy with exocrine pancreatic insufficiency without an inflammatory response and with preservation of islet cell function”. Moreover, the serum trypsin-like immunoreactivity in data set [4] (high-dose levels, beginning 5 to 6 weeks post last dose) is less than 2.5 µg/L. For the same molecule, in data set [5], the “severely toxic dose (STD10)” value is given as 3 mg/kg/day. In addition, in data set [6] (any dose), the “drug-related bone marrow suppression or peripheral neuropathy” value is recorded as “No drug-related bone marrow suppression or peripheral neuropathy was seen at any dose”. The “focal pancreatitis at the site of the tumor” value in data set [6] (cohort 4 (0.4 mg/kg), at 2.3 months) was “one patient in cohort 4 developed focal pancreatitis”. Also, the DLTs entry was “Three patients in cohort 5 developed serious adverse events considered dose limiting toxicities” in data set [6] (cohort 5 (0.8 mg/kg), N=10) and “No DLTs occurred” in data set [6] (cohorts 1-4 (0.05-0.4 mg/kg)). The “drug-related serious adverse events (SAEs) or dose limiting toxicities (DLTs)” value in data set [6] (up to 0.4 mg/kg/day Monday through Friday×3 weeks (TCD~6 mg/kg per 8 week cycle)) was “No drug-related serious adverse events (SAEs) or dose limiting toxicities (DLTs) were observed”.
